Laboratory results reported in patent US9399647B2, “Proteasome activity modulating compounds” (Proteostasis Therapeutics, Inc., priority 2012, dated 2016).

Biological target: USP14 (Homo sapiens, UniProt P54578)
Assay: USP14 inhibition assay
Assay type: biochemical
Settings: average value from three experimental determinations; read-out: USP14 IC50
Excerpt: The IC50 values in the Table below represent the average value from three experimental determinations.
These IC50 values represent the average value from three experimental determinations.

USP14, sequence (P54578 whole entry): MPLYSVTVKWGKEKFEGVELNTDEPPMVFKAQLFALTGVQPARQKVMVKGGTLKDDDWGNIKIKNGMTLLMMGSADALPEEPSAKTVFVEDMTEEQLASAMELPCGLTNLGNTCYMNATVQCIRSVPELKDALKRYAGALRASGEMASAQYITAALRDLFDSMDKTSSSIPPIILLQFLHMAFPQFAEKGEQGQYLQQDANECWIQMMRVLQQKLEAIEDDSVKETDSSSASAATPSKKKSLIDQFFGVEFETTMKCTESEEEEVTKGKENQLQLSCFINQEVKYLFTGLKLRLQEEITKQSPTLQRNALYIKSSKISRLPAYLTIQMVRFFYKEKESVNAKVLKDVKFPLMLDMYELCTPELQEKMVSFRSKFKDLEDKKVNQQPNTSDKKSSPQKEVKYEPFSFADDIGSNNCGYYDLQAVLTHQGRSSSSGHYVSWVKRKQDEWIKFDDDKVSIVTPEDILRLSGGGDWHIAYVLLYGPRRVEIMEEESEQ
USP14, sequence (Q13200 whole entry partner): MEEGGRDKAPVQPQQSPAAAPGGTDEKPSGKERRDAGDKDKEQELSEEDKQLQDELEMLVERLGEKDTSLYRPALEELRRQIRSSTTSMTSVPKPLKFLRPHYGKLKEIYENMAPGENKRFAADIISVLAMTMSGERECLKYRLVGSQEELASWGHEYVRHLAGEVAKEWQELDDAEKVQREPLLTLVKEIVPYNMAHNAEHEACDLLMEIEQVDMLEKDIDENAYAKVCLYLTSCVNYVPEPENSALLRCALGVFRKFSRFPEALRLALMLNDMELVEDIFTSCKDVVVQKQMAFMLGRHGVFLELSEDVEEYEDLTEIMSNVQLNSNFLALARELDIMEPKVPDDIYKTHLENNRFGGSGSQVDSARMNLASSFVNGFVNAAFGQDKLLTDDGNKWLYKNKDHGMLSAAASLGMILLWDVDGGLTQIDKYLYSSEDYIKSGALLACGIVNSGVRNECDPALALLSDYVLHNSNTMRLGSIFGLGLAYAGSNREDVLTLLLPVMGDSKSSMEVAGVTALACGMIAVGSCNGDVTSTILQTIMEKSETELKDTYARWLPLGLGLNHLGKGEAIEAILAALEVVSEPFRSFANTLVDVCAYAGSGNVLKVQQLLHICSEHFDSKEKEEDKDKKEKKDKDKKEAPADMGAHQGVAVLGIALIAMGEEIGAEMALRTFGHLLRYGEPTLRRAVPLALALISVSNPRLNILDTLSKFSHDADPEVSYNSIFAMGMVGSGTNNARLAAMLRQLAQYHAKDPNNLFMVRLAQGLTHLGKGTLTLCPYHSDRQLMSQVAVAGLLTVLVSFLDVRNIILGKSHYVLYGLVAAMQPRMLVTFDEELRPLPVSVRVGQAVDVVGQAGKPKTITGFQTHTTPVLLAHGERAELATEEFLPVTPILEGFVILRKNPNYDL
USP14, sequence (P35998 whole entry partner): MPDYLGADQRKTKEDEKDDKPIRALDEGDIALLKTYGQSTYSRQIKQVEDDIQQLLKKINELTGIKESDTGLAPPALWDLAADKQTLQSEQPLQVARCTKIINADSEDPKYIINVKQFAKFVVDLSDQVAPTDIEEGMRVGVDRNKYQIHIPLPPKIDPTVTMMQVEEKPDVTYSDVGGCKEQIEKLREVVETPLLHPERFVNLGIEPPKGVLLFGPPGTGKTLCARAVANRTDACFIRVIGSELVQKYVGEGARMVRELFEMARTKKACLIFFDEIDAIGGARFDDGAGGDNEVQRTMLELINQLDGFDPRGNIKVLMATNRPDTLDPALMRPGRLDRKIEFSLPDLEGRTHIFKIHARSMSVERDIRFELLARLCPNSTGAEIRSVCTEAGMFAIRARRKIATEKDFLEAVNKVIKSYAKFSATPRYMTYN

| IC50 [µM] | Structure (SMILES) |
| --- | --- |
| 7.5 | COCc1nc(N(C)C2CC2)c2c3c(sc2n1)CCCC3 [Compound 4, Cyclopropyl-(2-methoxymethyl-5,6,7,8-tetrahydro-benzo[4,5]thieno[2,3-d]pyrimidin-4-yl)-methyl-amine] |

Same assay, conditions: average value from three experimental determinations; reported as potency bands; read-out: IC50 (USP14 inhibition)

| IC50 [µM] | Structure (SMILES) |
| --- | --- |
| 1 to 5 | CN(c1nc(CC(=O)NCCC(C)(C)O)nc2sc3c(c12)CCCC3)C1CC1 [Compound 35, 2-[4-(Cyclopropyl-methyl-amino)-5,6,7,8-tetrahydro-benzo[4,5]thieno[2,3-d]pyrimidin-2-yl]-N-(3-hydroxy-3-methyl-butyl)-acetamide] |
| > 5 | CCOC(=O)Cc1nc(N(C)C(C)C)c2c3c(sc2n1)CCCC3 [Compound 41, [4-(Isopropyl-methyl-amino)-5,6,7,8-tetrahydro-benzo[4,5]thieno[2,3-d]pyrimidin-2-yl]-acetic acid ethyl ester] |
| > 5 | CN(C)C(=O)Cc1nc(N2CCC2)c2c3c(sc2n1)CCCC3 [Compound 44, 2-(4-(Azetidin-1-yl)-5,6,7,8-tetrahydrobenzo[4,5]thieno[2,3-d]pyrimidin-2-yl)-N,N-dimethylacetamide] |
| < 1 | CN(c1nc(CC(=O)N2CCCC2CO)nc2sc3c(c12)CCCC3)C1CC1 (centres unmarked) [Compound 39, 2-[4-(Cyclopropyl-methyl-amino)-5,6,7,8-tetrahydro-benzo[4,5]thieno[2,3-d]pyrimidin-2-yl]-1-(2-hydroxymethyl-pyrrolidin-1-yl)-ethanone] |
| > 5 | CC(C)N(C)c1nc(CC(=O)O)nc2sc3c(c12)CCCC3 [Compound 46, [4-(Isopropyl-methyl-amino)-5,6,7,8-tetrahydro-benzo[4,5]thieno[2,3-d]pyrimidin-2-yl]-acetic acid] |
| > 5 | CN(c1nc(CC(=O)O)nc2sc3c(c12)CCCCC3)C1CC1 [Compound 52, [4-(Cyclopropyl-methyl-amino)-6,7,8,9-tetrahydro-5H-10-thia-1,3-diazabenz[a]azulen-2-yl]-acetic acid] |
| 1 to 5 | CN(c1nc(CO)nc2sc3c(c12)CCCC3)C1CC1 [Compound 49, [4-(Cyclopropyl-methyl-amino)-5,6,7,8-tetrahydro-benzo[4,5]thieno[2,3-d]pyrimidin-2-yl]-methanol] |
| 1 to 5 | CN(C)C(=O)Cc1nc(N(C)C)c2c3c(sc2n1)CCCC3 [Compound 43, 2-(4-Dimethylamino-5,6,7,8-tetrahydro-benzo[4,5]thieno[2,3-d]pyrimidin-2-yl)-N,N-dimethyl-acetamide] |
| > 5 | CN(c1nc(COc2cccnc2)nc2sc3c(c12)CCCC3)C1CC1 [Compound 50, Cyclopropyl-methyl-[2-(pyridine-3-yloxymethyl)-5,6,7,8-tetrahydro-benzo[4,5]thieno[2,3-d]pyrimidin-4-yl]-amine] |
| 1 to 5 | CN(C)C(=O)CCc1nc(N(C)C2CC2)c2c3c(sc2n1)CCCC3 [Compound 48, 3-[4-(Cyclopropyl-methyl-amino)-5,6,7,8-tetrahydro-[1]benzothiopheno[2,3-d]pyrimidin-2-yl]-N,N-dimethyl-propionamide] |

The remaining lines, values behind:

| Structure (SMILES) | IC50 [µM] |
| --- | --- |
| CN(c1nc(CC(=O)Nc2ccon2)nc2sc3c(c12)CCCC3)C1CC1 [Compound 21] | 1 to 5 |
| CN(c1nc(CC(=O)N2CC[C@@H](N(C)C)C2)nc2sc3c(c12)CCCC3)C1CC1 [Compound 30, 2-[4-(Cyclopropyl-methyl-amino)-5,6,7,8-tetrahydro-benzo[4,5]thieno[2,3-d]pyrimidin-2-yl]-1-((R)-3-dimethylamino-pyrrolidin-1-yl)-ethanone] | < 1 |
| CN(c1nc(CC(=O)N2CC[C@H](C(C)(C)O)C2)nc2sc3c(c12)CCCC3)C1CC1 [Compound 20, (S)-2-(4-(Cyclopropyl(methyl)amino)-5,6,7,8-tetrahydrobenzo[4,5]thieno[2,3-d]pyrimidin-2-yl)-1-(3-(2-hydroxypropan-2-yl)pyrrolidin-1-yl)ethanone] | < 1 |
| CN(c1nc(CC(=O)N2CCCC(O)C2)nc2sc3c(c12)CCCC3)C1CC1 (centres unmarked) [Compound 33, 2-[4-(Cyclopropyl-methyl-amino)-5,6,7,8-tetrahydro-benzo[4,5]thieno[2,3-d]pyrimidin-2-yl]-1-(3-hydroxy-piperidin-1-yl)-ethanone] | < 1 |
| CN(c1nc(CC(=O)N2CCC(F)(F)CC2)nc2sc3c(c12)CCCC3)C1CC1 [Compound 11, 2-[4-(Cyclopropyl-methyl-amino)-5,6,7,8-tetrahydro-benzo[4,5]thieno[2,3-d]pyrimidin-2-yl]-1-(4,4-difluoro-piperidin-1-yl)-ethanone] | 1 to 5 |
| CN(c1nc(CC(=O)N2CC[C@H](N(C)C)C2)nc2sc3c(c12)CCCC3)C1CC1 [Compound 24, 2-[4-(Cyclopropyl-methyl-amino)-5,6,7,8-tetrahydrobenzo[4,5]thieno[2,3-d]pyrimidin-2yl]-1-((S)-3-dimethylamino-pyrrolidin-1-yl)-ethanone] | < 1 |
| CN(c1nc(CC(=O)NCc2cccnc2)nc2sc3c(c12)CCCC3)C1CC1 [Compound 19] | 1 to 5 |
| CC(=O)N1CCN(C(=O)Cc2nc(N(C)C3CC3)c3c4c(sc3n2)CCCC4)CC1 [Compound 13, 1-(4-Acetyl-piperazin-1-yl)-2-[4-(Cyclopropyl-methyl-amino)-5,6,7,8-tetrahydro-[1]benzothieno[2,3-d]pyrimidin-2-yl]-ethanone] | < 1 |
| CN(c1nc(CC(=O)N2CC(O)C2)nc2sc3c(c12)CCCC3)C1CC1 [Compound 12, 2-(4-(Cyclopropyl(methyl)amino)-5,6,7,8-tetrahydrobenzo[4,5]thieno[2,3-d]pyrimidin-2-yl)-1-(3-hydroxyazetidin-1-yl)ethanone] | < 1 |
| CN(C)C1CCN(C(=O)Cc2nc(N(C)C3CC3)c3c4c(sc3n2)CCCC4)C1 (centres unmarked) [Compound 8, 2-[4-(Cyclopropyl-methyl-amino)-5,6,7,8-tetrahydro-benzo[4,5]thieno[2,3-d]pyrimidin-2-yl]-1-(3-dimethylamino-pyrrolidin-1-yl)-ethanone] | < 1 |
| CN(c1nc(CC(=O)NCc2ccccn2)nc2sc3c(c12)CCCC3)C1CC1 [Compound 18] | 1 to 5 |
| CN(c1nc(CC(=O)N2CCC(F)(F)C2)nc2sc3c(c12)CCCC3)C1CC1 [Compound 7, 2-[4-(Cyclopropyl-methyl-amino)-5,6,7,8-tetrahydro-benzo[4,5]thieno[2,3-d]pyrimidin-2-yl]-1-(3,3-difluoro-pyrrolidin-1-yl)-ethanone] | 1 to 5 |
| CCNC(=O)Cc1nc(N(C)C2CC2)c2c3c(sc2n1)CCCC3 [Compound 34, 2-[4-(Cyclopropyl-methyl-amino)-5,67,8-tetrahydro-benzo[4,5]thieno[2,3-d]pyrimidin-2-yl]-N-ethyl-acetamide] | 1 to 5 |
| CN(c1nc(CC(=O)N2CCCCC2)nc2sc3c(c12)CCCC3)C1CC1 [Compound 26, 2-[4-(Cyclopropyl-methyl-amino)-5,6,7,8-tetrahydro-benzo[4,5]thieno[2,3-d]pyrimidin-2yl]-1-piperidin-1-yl-ethanone] | 1 to 5 |
| CN1CCN(C(=O)Cc2nc(N(C)C3CC3)c3c4c(sc3n2)CCCC4)CC1 [Compound 10, 2-[4-(Cyclopropyl-methyl-amino)-5,6,7,8-tetrahydro-benzo[4,5]thieno[2,3-d]pyrimidin-2-yl]-1-(4-methyl-piperazin-1-yl)-ethanone] | < 1 |
